Reference: PMC7265341, “Quantifying CDK inhibitor selectivity in live cells” (Nature Communications, 2020)
Read-outs that look alike come from different tables or passages of the source.

Columns and labels:
[1] = molecular target: CDK17/Cyclin Y (Homo sapiens, UniProt Q00537); experiment: NanoBRET live-cell target engagement, CDK17-NanoLuc/Cyclin Y in HEK-293; assay type: binding; details: CDK17/Y, 10µM
[2] = molecular target: CDK9/Cyclin K (Homo sapiens, UniProt P50750); experiment: NanoBRET live-cell target engagement, NanoLuc-CDK9/Cyclin K in HEK-293; assay type: binding; details: for inhibition at 10 µM: CDK9/K
[3] = molecular target: CDK11B/Cyclin L2 (Homo sapiens, UniProt P21127); experiment: NanoBRET live-cell target engagement, CDK11B-NanoLuc/Cyclin L2 in HEK-293; assay type: binding; details: CDK11b/L2, 10µM
Chain of CDK11B/Cyclin L2 (P21127 1-782 isoform P21127-2): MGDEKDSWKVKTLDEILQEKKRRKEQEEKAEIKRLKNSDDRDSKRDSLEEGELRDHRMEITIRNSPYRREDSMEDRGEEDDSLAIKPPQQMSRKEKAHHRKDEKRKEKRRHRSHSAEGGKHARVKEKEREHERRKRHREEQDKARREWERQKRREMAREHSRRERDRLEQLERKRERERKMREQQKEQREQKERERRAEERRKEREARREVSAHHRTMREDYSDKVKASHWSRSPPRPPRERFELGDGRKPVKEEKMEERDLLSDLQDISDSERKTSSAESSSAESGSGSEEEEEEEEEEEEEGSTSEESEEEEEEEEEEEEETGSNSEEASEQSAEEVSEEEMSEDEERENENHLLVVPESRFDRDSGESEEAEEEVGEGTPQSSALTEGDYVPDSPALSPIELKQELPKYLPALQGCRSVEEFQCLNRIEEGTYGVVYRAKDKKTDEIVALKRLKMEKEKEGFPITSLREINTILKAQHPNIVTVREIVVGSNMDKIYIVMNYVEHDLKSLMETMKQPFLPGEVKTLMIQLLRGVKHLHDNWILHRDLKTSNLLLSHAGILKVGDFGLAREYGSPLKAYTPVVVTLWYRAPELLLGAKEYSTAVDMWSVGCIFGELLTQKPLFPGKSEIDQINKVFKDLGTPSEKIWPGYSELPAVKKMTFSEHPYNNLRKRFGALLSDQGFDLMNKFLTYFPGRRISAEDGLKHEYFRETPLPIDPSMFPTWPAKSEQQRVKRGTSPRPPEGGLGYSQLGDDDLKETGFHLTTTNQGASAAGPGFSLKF

[4] = molecular target: CDK13/Cyclin K (Homo sapiens, UniProt Q14004); experiment: NanoBRET live-cell target engagement, CDK13-NanoLuc/Cyclin K in HEK-293; assay type: binding; details: CDK13/K, 10µM
[5] = molecular target: CDK16/Cyclin Y (Homo sapiens, UniProt Q00536); experiment: NanoBRET live-cell target engagement, CDK16-NanoLuc/Cyclin Y in HEK-293; assay type: binding; details: CDK16/Y, 10µM
[6] = molecular target: CDK19/Cyclin C (Homo sapiens, UniProt Q9BWU1); experiment: NanoBRET live-cell target engagement, NanoLuc-CDK19/Cyclin C in HEK-293; details: 10µM
Chain of CDK19/Cyclin C (Q9BWU1 whole entry): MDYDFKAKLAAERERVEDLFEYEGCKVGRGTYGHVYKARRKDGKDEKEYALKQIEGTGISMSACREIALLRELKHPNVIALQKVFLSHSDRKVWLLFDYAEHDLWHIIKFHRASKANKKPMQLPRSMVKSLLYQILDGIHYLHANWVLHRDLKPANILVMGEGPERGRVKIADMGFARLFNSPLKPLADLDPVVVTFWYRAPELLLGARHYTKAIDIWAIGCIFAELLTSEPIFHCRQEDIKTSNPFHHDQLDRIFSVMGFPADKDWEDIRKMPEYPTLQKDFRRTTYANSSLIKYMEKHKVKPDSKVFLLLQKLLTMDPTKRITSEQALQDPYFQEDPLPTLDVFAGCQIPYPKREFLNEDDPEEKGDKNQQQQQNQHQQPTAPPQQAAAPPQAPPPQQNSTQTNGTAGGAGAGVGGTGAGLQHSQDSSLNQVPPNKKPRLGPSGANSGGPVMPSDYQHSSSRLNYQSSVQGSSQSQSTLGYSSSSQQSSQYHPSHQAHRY
Chain of CDK19/Cyclin C (P24863 whole entry partner): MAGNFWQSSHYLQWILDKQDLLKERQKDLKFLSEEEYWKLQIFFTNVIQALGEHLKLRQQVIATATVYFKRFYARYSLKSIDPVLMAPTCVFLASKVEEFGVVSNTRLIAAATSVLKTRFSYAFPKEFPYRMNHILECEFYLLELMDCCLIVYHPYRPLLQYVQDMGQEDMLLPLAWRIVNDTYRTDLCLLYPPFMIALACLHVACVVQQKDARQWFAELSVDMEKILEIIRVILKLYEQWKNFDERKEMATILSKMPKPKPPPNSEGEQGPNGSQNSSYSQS

[7] = molecular target: CDK1/Cyclin E1 (Homo sapiens, UniProt P06493); experiment: NanoBRET live-cell target engagement, CDK1-NanoLuc/Cyclin E1 in HEK-293; assay type: binding; details: CDK1/E1, 10µM
[8] = molecular target: CDK5/CDK5R1 (Homo sapiens, UniProt Q00535); experiment: NanoBRET live-cell target engagement, CDK5-NanoLuc/CDK5R1 in HEK-293; assay type: binding; details: CDK5/CDK5R1, 10µM
Chain of CDK5/CDK5R1 (Q00535 whole entry): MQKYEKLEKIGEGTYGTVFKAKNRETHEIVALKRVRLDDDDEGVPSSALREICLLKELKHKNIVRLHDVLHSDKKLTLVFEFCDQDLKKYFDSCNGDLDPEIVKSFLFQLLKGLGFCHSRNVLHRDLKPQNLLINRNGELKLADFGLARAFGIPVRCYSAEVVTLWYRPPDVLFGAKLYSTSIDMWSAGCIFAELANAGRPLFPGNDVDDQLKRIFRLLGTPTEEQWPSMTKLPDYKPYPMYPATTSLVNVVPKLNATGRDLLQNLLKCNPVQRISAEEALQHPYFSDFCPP
Chain of CDK5/CDK5R1 (Q15078 whole entry partner): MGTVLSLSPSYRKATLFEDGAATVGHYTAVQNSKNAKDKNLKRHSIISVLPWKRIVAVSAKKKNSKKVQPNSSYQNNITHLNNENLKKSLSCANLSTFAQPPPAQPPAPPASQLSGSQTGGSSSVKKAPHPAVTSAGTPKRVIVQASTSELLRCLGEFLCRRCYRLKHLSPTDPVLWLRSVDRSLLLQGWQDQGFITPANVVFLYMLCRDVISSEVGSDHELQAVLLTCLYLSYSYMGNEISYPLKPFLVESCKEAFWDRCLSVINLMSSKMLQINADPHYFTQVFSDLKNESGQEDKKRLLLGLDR

[9] = molecular target: CDK6/Cyclin D1 (Homo sapiens, UniProt Q00534); experiment: NanoBRET live-cell target engagement, NanoLuc-CDK6/Cyclin D1 in HEK-293; assay type: binding; details: CDK6/D1, 10µM
Chain of CDK6/Cyclin D1 (Q00534 whole entry): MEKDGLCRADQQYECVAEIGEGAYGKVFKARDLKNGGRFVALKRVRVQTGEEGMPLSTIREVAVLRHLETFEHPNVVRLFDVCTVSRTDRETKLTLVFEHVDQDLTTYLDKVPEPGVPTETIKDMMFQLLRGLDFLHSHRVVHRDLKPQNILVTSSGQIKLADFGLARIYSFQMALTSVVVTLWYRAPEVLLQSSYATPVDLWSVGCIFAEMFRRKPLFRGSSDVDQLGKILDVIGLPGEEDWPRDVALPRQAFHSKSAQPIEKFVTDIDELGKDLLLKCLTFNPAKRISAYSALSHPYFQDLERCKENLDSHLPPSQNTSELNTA
Chain of CDK6/Cyclin D1 (P24385 whole entry partner): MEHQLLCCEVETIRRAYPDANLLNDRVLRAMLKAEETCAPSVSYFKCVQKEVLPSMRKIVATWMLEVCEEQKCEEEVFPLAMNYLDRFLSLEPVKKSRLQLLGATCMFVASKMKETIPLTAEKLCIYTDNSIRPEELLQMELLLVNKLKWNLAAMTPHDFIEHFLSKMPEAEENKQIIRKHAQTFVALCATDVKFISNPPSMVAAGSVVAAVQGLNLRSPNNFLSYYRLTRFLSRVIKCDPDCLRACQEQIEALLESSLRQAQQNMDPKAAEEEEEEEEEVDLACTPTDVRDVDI

[10] = molecular target: T1, CDK11A/Cyclin L2 (Homo sapiens, UniProt Q9UQ88); experiment: NanoBRET live-cell target engagement, CDK11A-NanoLuc/Cyclin L2 in HEK-293; assay type: binding; details: CDK11a/L2, 10µM
T1 sequence (Q9UQ88 1-783): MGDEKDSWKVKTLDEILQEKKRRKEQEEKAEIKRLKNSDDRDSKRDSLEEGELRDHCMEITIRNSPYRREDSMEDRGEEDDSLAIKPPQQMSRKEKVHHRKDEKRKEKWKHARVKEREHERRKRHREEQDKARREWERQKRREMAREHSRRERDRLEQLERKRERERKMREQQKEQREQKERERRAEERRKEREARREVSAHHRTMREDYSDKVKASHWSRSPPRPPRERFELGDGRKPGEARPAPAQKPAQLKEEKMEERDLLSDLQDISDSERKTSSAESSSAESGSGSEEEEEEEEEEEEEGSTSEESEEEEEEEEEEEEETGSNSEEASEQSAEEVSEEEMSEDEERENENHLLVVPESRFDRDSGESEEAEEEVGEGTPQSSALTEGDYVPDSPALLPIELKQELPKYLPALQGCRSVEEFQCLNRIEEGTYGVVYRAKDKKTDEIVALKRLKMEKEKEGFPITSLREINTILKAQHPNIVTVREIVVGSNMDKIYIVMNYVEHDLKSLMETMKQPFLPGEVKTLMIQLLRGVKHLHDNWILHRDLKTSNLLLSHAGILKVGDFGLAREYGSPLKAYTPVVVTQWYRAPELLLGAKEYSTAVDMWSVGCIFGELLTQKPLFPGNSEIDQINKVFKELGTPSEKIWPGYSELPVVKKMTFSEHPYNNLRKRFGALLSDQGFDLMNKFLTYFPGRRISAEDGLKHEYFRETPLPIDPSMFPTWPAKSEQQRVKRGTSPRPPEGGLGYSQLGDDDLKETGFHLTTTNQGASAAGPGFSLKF

[11] = molecular target: CDK3/Cyclin E1 (Homo sapiens, UniProt Q00526); experiment: NanoBRET live-cell target engagement, CDK3-NanoLuc/Cyclin E1 in HEK-293; assay type: binding; details: CDK3/E1, 10µM
[12] = molecular target: CDK12/Cyclin K (Homo sapiens, UniProt Q9NYV4); experiment: NanoBRET live-cell target engagement, CDK12-NanoLuc/Cyclin K in HEK-293; assay type: binding; details: CDK12/K, 10µM
[13] = molecular target: CDK4/Cyclin D1 (Homo sapiens, UniProt P11802); experiment: NanoBRET live-cell target engagement, NanoLuc-CDK4/Cyclin D1 in HEK-293; assay type: binding; details: CDK4/D1, 10µM
Chain of CDK4/Cyclin D1 (P11802 whole entry): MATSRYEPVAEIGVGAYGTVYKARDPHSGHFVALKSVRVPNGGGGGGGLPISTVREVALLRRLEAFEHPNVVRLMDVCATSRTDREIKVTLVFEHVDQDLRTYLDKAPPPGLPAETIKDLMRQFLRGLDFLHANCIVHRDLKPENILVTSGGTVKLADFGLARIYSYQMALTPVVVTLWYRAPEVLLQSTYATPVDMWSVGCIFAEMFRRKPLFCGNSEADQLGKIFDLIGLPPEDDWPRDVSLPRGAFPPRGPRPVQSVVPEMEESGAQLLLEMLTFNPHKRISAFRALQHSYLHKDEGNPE
Chain of CDK4/Cyclin D1 (P24385 whole entry partner): as the sequence (P24385 whole entry partner) above

[14] = molecular target: CDK8/Cyclin C (Homo sapiens, UniProt P49336); experiment: NanoBRET live-cell target engagement, NanoLuc-CDK8/Cyclin C in HEK-293; assay type: binding; details: CDK8/C, 10µM
[15] = molecular target: CDK20/Cyclin H (Homo sapiens, UniProt Q8IZL9); experiment: NanoBRET live-cell target engagement, NanoLuc-CDK20/Cyclin H in HEK-293; assay type: binding; details: CDK20/H, 10µM
[16] = molecular target: CDK18/Cyclin Y (Homo sapiens, UniProt Q07002); experiment: NanoBRET live-cell target engagement, CDK18-NanoLuc/Cyclin Y in HEK-293; assay type: binding; details: CDK18/Y, 10µM
[17] = molecular target: CDK7 (Homo sapiens, UniProt P50613); experiment: NanoBRET live-cell target engagement, NanoLuc-CDK7 in HEK-293; assay type: binding; details: CDK7, 10µM
Chain of CDK7 (P50613 whole entry): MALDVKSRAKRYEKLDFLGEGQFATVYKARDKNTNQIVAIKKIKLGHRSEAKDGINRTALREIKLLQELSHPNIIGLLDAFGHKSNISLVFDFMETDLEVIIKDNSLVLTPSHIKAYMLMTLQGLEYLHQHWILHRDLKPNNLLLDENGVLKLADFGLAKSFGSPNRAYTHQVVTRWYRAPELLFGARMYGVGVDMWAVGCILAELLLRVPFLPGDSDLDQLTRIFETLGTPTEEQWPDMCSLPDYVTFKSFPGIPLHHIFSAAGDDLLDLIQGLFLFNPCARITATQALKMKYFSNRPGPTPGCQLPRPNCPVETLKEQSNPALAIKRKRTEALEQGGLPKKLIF

[18] = molecular target: CDK2/Cyclin E1 (Homo sapiens, UniProt P24941); experiment: NanoBRET live-cell target engagement, CDK2-NanoLuc/Cyclin E1 in HEK-293; assay type: binding; details: CDK2/E1, 10µM
[19] = molecular target: CDK15/Cyclin Y (Homo sapiens, UniProt Q96Q40); experiment: NanoBRET live-cell target engagement, NanoLuc-CDK15/Cyclin Y in HEK-293; assay type: binding; details: CDK15/Y, 10µM
Chain of CDK15/Cyclin Y (Q96Q40 whole entry): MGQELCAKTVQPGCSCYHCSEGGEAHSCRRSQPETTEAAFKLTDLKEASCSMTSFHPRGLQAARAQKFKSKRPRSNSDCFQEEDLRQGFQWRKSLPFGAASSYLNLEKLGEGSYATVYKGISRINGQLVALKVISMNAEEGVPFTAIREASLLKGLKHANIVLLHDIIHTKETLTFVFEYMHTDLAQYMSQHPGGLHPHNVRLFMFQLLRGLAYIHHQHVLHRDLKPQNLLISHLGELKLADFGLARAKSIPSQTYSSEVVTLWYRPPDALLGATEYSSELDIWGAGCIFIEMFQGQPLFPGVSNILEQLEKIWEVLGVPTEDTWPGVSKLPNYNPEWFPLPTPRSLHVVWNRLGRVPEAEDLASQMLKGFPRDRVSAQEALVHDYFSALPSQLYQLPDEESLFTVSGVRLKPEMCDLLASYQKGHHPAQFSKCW
Chain of CDK15/Cyclin Y (Q8ND76 whole entry partner): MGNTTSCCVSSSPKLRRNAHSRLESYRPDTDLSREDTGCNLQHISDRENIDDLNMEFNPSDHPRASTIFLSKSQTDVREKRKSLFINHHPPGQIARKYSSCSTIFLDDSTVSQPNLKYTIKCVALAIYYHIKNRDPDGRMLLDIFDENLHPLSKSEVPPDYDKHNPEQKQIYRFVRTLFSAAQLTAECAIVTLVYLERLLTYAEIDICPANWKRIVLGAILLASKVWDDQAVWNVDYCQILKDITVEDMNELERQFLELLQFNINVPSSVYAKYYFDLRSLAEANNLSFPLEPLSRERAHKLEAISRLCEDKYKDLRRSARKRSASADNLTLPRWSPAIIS

[20] = average of replicates, read-out: Inhibition at 10µM (%) Average
[21] = read-out: Inhibition at 10µM (%) Replicate 1
[22] = read-out: Inhibition at 10µM (%) Replicate 2

Chain of CDK17/Cyclin Y (Q00537 whole entry): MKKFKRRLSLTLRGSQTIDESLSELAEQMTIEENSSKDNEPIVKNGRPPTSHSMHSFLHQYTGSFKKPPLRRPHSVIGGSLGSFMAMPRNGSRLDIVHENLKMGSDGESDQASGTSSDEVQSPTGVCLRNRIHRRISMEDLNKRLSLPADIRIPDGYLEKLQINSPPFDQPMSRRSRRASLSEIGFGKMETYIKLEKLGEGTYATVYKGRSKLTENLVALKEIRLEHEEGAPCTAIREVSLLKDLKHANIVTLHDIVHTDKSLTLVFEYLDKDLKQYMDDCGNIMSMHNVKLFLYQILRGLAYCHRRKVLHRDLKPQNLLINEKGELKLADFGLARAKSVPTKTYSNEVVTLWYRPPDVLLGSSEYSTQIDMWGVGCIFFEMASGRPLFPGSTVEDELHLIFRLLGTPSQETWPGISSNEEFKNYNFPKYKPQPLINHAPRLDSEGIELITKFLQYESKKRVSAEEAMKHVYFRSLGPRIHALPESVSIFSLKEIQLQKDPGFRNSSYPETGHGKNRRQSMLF
Chain of CDK17/Cyclin Y (Q8ND76 whole entry partner): as the sequence (Q8ND76 whole entry partner) above

inhibition at 10 µM [1, 20]: 59.9% | inhibition at 10 µM [1, 21]: 56.6% | inhibition at 10 µM [1, 22]: 63.1% | inhibition at 10 µM [2, 20]: 99.8% | inhibition at 10 µM [2, 21]: 99.5% | inhibition at 10 µM [2, 22]: 100% | CDK9 Occupancy Data, Plasmid ([2]; LOG10([BAY-1251152]) (LOG10(µM)) 0.045757): 99.1453 | CDK9 Occupancy Data, Plasmid ([2]; LOG10([BAY-1251152]) (LOG10(µM)) 0.522879): 96.1111 | CDK9 Occupancy Data, Plasmid ([2]; LOG10([BAY-1251152]) (LOG10(µM)) 1): 96.4103 | CDK9 Occupancy Data, Plasmid ([2]; LOG10([BAY-1251152]) (LOG10(µM)) -0.43136): 97.094 | CDK9 Occupancy Data, Plasmid ([2]; LOG10([BAY-1251152]) (LOG10(µM)) -0.90849): 95.641 | CDK9 Occupancy Data, Plasmid ([2]; LOG10([BAY-1251152]) (LOG10(µM)) -1.38561): 91.9658 | CDK9 Occupancy Data, Plasmid ([2]; LOG10([BAY-1251152]) (LOG10(µM)) -1.86273): 87.906 | CDK9 Occupancy Data, Plasmid ([2]; LOG10([BAY-1251152]) (LOG10(µM)) -2.33985): 67.9487 | CDK9 Occupancy Data, Plasmid ([2]; LOG10([BAY-1251152]) (LOG10(µM)) -2.81697): 29.4872 | CDK9 Occupancy Data, Plasmid ([2]; LOG10([BAY-1251152]) (LOG10(µM)) -3.29409): 6.838 | CDK9 Occupancy Data, Plasmid ([2]; LOG10([BAY-1251152]) (LOG10(µM)) -3.77121): 1.421e-14 | inhibition at 10 µM [3, 20]: 33.9% | inhibition at 10 µM [3, 21]: 35.6% | inhibition at 10 µM [3, 22]: 32.1% | inhibition at 10 µM [4, 20]: 23.2% | inhibition at 10 µM [4, 21]: 23.5% | inhibition at 10 µM [4, 22]: 22.8% | inhibition at 10 µM [5, 21]: 62.8% | inhibition at 10 µM [5, 22]: 66.7% | inhibition at 10 µM ([6]; read-out: Inhibition at 10µM (%) Average, CDK19/C, average of replicates): 21.3% | inhibition at 10 µM ([6]; read-out: Inhibition at 10µM (%) Replicate 1, CDK19/C): 28.8% | inhibition at 10 µM ([6]; read-out: Inhibition at 10µM (%) Replicate 2, CDK19/C): 13.7% | inhibition at 10 µM [7, 20]: 56% | inhibition at 10 µM [7, 21]: 55.2% | inhibition at 10 µM [7, 22]: 56.8% | inhibition at 10 µM [8, 20]: 56.6% | inhibition at 10 µM [8, 21]: 44.9% | inhibition at 10 µM [8, 22]: 68.3% | inhibition at 10 µM [9, 20]: 86.3% | inhibition at 10 µM [9, 21]: 83.5% | inhibition at 10 µM [9, 22]: 89.1% | inhibition at 10 µM [10, 20]: 44% | inhibition at 10 µM [10, 21]: 39.5% | inhibition at 10 µM [10, 22]: 48.5% | inhibition at 10 µM [11, 20]: 77.9% | inhibition at 10 µM [11, 21]: 75.8% | inhibition at 10 µM [11, 22]: 80% | inhibition at 10 µM [12, 20]: 25.3% | inhibition at 10 µM [12, 21]: 33% | inhibition at 10 µM [12, 22]: 17.7% | inhibition at 10 µM [13, 20]: 79.7% | inhibition at 10 µM [13, 21]: 75.9% | inhibition at 10 µM [13, 22]: 83.4% | inhibition at 10 µM [14, 20]: 9.9% | inhibition at 10 µM [14, 21]: 13.9% | inhibition at 10 µM [14, 22]: 5.9% | inhibition at 10 µM [15, 21]: 8.6% | inhibition at 10 µM [15, 22]: 8.9% | inhibition at 10 µM [16, 20]: 46.2% | inhibition at 10 µM [16, 21]: 38.7% | inhibition at 10 µM [16, 22]: 53.8% | inhibition at 10 µM [17, 20]: 58.7% | inhibition at 10 µM [17, 21]: 59.8% | inhibition at 10 µM [17, 22]: 57.6% | inhibition at 10 µM [18, 20]: 72.3% | inhibition at 10 µM [18, 21]: 71% | inhibition at 10 µM [18, 22]: 73.6% | inhibition at 10 µM [19, 20]: 40% | inhibition at 10 µM [19, 21]: 31.9% | inhibition at 10 µM [19, 22]: 48.2%
Compound: COc1cc(F)ccc1-c1cc(Nc2cc(CS(C)(=N)=O)ccn2)ncc1F (stereo not drawn) [BAY-1251152]
